These results are taken from PubChem BioAssay (NCI).

The structures appear in SMILES notation.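 Five compound concentrations were applied to cells in 96-well plates for 48 hours; endpoints were derived by simple linear interpolation of the resulting dose-response curve. The concentration for 50% growth inhibition is given as GI50. At the TGI there is no net growth.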

Common to all, as to assay: NCI tumour cell line growth inhibition, 48 h
For assay [1], the system named is KM12 colon.
Assay [2] concerns ACHN renal.
The test system of assay [3] is NCI-H226 lung.
Assay [4] deals with U251 CNS.
The test system of assay [5] is MDA-MB-231 breast.
Assay [6] concerns HCT-15 colon.
Assay [7] deals with CCRF-CEM leukemia.
Assay [8] has as its system UACC-257 melanoma.
Assay [9] has as its system OVCAR-3 ovarian.
In assay [10] the test system is SW-620 colon.

As to `Oc1nc(N2CCOCC2)sc1/C=C1\C=Nc2ccccc21`, the GI50 in [1], in assay [2], in assay [3], in [4], in [5] and in [6] was above 100 µM each time. Moreover, the GI50 in assay [7], in assay [8], in assay [9] and in assay [10] was above 100 µM in each case. The TGI in assay [1], in assay [2], in assay [3], in assay [4], in assay [5] and in assay [6] was above 100 µM in each case. For the same molecule, the TGI in assay [7], in assay [8], in [9] and in assay [10] was above 100 µM throughout.

Turning to `COc1cccc(/C=C2\CCC(CN(C)C)C2=O)c1` (stereo not given), the TGI in assay [1] came to 15.1 µM; in assay [2] it was 25.5 µM; in assay [3] it was 33.6 µM; in assay [4] it was 26.5 µM; in [5], 14 µM; in assay [6], 7.97 µM. The TGI amounted to 11.1 µM in assay [7], 12.7 µM in [8], 11.9 µM in [9] and 8.52 µM in assay [10].

On to `CCCCCN(CCCCC)CCC[C@@H](C)[C@H]1CC[C@H]2[C@@H]3[C@H](OCCCN)C[C@@H]4C[C@H](OCCCN)CC[C@]4(C)[C@H]3C[C@H](OCCCN)[C@]12C`, for which the GI50 in assay [1] was 3.59 µM; in [2], 8.8 µM; in [3], 5.11 µM; in assay [4], 4.53 µM; in [5] it was 4.41 µM; in assay [6], 15.4 µM. Besides, the GI50 was 4.47 µM in [7], 13.5 µM in assay [8], 17 µM in [9] and 4.79 µM in assay [10]. The TGI is 17 µM in assay [1]; 35 µM in [2]; 24.8 µM in assay [3]; 18.4 µM in assay [4]; 19.7 µM in assay [5]; above 100 µM in assay [6]. Besides, the TGI came out at 20.5 µM in assay [7], 28.6 µM in assay [8], 36.1 µM in assay [9] and 20.2 µM in assay [10].

In the case of `COc1ccc(Nc2ncc(I)c(NCCCNC(=O)C3CCC3)n2)cc1`, the GI50 was 3.42 µM in [1]; 3.65 µM in assay [2]; 3.91 µM in assay [3]; 2.08 µM in assay [4]; 1.66 µM in assay [5]; 5.88 µM in assay [6]. In addition, the GI50 is 4.96 µM in assay [7], 15 µM in assay [8], 7.83 µM in [9] and 9.28 µM in assay [10]. Moreover, the TGI in [1] was above 100 µM; in assay [2], above 100 µM; in assay [3] it was 67.1 µM; in [4], 28.9 µM; in assay [5], 5.31 µM; in assay [6] it was 52.1 µM. In addition, the TGI in [7] is above 100 µM; in [8] it was 93 µM; in assay [9] it was 33.8 µM; in assay [10] it was above 100 µM.

As for `O=c1[nH]c(-c2ccc(Cl)c(Cl)c2)cn1-c1ccc(Cl)cc1`, the GI50 was 71.3 µM in [1]; 32.5 µM in assay [2]; 22.9 µM in assay [3]; 17.4 µM in assay [4]; 15.2 µM in [5]; above 100 µM in assay [6]. Moreover, the GI50 in [7] was 40.3 µM; in assay [8], above 100 µM; in assay [9] it was 27.7 µM; in [10] it was 33.1 µM. Also, the TGI in assay [1] is above 100 µM; in assay [2], above 100 µM; in assay [3] it was 54.1 µM; in assay [4], 42.8 µM; in [5], 46 µM; in [6], above 100 µM. The TGI in assay [7] is above 100 µM; in assay [8] it was above 100 µM; in [9], 59 µM; in assay [10], above 100 µM.

On to `COc1ccc(OC)c(N2CC(O)=C(c3nc4ccccc4s3)C2=N)c1`, for which the GI50 in assay [1] was 39.1 µM; in assay [2], 51.6 µM; in assay [3] it was 56.9 µM; in assay [4], 51.5 µM; in assay [5] it was 20.6 µM; in [6] it was 5.22 µM. Also, the GI50 in assay [7] is 0.541 µM; in assay [8], above 100 µM; in assay [9], 74.1 µM; in assay [10], 32.7 µM. Besides, the TGI in assay [1], in [2], in assay [3], in [4], in assay [5] and in [6] was above 100 µM each time. For the same molecule, the TGI in [7], in [8], in [9] and in [10] was above 100 µM throughout.

For the molecule `COc1cc2c(cc1OC)[C@@H]1C(=O)c3ccc4c(c3O[C@@H]1CO2)C[C@H](C(C)C)O4`, the GI50 is 5.31 µM in assay [1]; 3.13 µM in assay [2]; 8.89 µM in [3]; 4.57 µM in assay [4]; 21.6 µM in assay [5]; 9.26 µM in [6]. Moreover, the GI50 is 5.41 µM in [7], 4.19 µM in [8], 7.81 µM in [9] and 9.05 µM in assay [10]. The TGI in [1] was 26.1 µM; in assay [2], above 46.4 µM; in assay [3], above 100 µM; in assay [4] it was above 38.2 µM; in [5] it was above 100 µM; in [6], above 71 µM. The TGI is above 100 µM in assay [7], above 57.7 µM in [8], above 41.1 µM in assay [9] and above 46.7 µM in [10].

Regarding `COc1ccc(C2c3ccc4ccccc4c3Oc3ncn(CCCn4ccnc4)c(=N)c32)cc1OC` (stereo not given), the GI50 in [1] is 3.74 µM; in assay [2] it was 4.42 µM; in assay [3], 9.16 µM; in assay [4], 2.36 µM; in [5] it was 2.44 µM; in assay [6], 3.37 µM. For the same molecule, the GI50 in assay [7] is 2.52 µM; in [8] it was 3.07 µM; in assay [9] it was 3.44 µM; in assay [10], 2.73 µM. The TGI in [1] is 13.9 µM; in assay [2], 16.2 µM; in [3], 27.1 µM; in assay [4] it was 7.69 µM; in assay [5], 8.01 µM; in assay [6], 12.8 µM. The TGI in assay [7] came out at 6.9 µM; in assay [8], 11.4 µM; in [9] it was 11 µM; in [10], 9.24 µM.

As for `COc1ccc2c(n1)Sc1nc3ccccc3nc1N2`, the TGI in assay [1] was above 100 µM; in assay [2], above 100 µM; in assay [3] it was 34 µM; in assay [4], 52.7 µM; in assay [5], 49.7 µM; in assay [6], above 100 µM. The TGI in [7], in assay [8], in assay [9] and in assay [10] was above 100 µM each time.

As for `COc1ccc(C)c2sc(N(Cc3cccnc3)C(=O)c3ccc(C#N)cc3)nc12`, the GI50 in [1] is 34.6 µM; in assay [2] it was 34.7 µM; in assay [3], 54.4 µM; in [4] it was 42.3 µM; in assay [5], 38.2 µM; in assay [6], 30.5 µM. Besides, the GI50 was 36.6 µM in [7], 56 µM in assay [8], 40.1 µM in assay [9] and 54.2 µM in assay [10]. In addition, the TGI in assay [1], in assay [2], in assay [3], in assay [4], in assay [5] and in assay [6] was above 100 µM throughout. The TGI in assay [7], in [8], in assay [9] and in assay [10] was above 100 µM each time.

`CC(C)[C@@]12C[C@@H](OC(=O)C3CO3)[C@@](C)(O1)[C@@H]1CC[C@@H](C)[C@H]1[C@@H]2OC(=O)/C=C/c1ccccc1` (stereo not given in full): the GI50 in [1] is 18.7 µM; in assay [2] it was 2.34 µM; in assay [3], 13.5 µM; in [4], 18.7 µM; in assay [5], 13.3 µM; in [6], 21.1 µM. The GI50 in assay [7] was 29 µM; in assay [8] it was 19.2 µM; in assay [9], 15.8 µM; in assay [10] it was 18.5 µM. Also, the TGI in assay [1] was determined as 38.1 µM; in assay [2] it was 7.79 µM; in assay [3], 29.3 µM; in assay [4], 44.3 µM; in assay [5], 31.2 µM; in assay [6], 60.6 µM. The TGI in assay [7] was above 100 µM; in [8] it was 39.4 µM; in [9], 30 µM; in assay [10], 39.3 µM.

As to `O=C(Nc1ccc(Cl)c(C(F)(F)F)c1)Nc1ccc(-c2cccnc2)cc1N1CCC(CO)CC1`, the GI50 was 2.2 µM in [1]; 3 µM in assay [2]; 2.68 µM in assay [3]; 2.41 µM in assay [4]; 1.92 µM in assay [5]; 2.32 µM in assay [6]. Moreover, the GI50 is 2.9 µM in [7], 3.47 µM in assay [8], 1.84 µM in assay [9] and 2.76 µM in assay [10]. The TGI in [1] was 6.44 µM; in [2] it was above 100 µM; in assay [3] it was 9.79 µM; in [4], 7.1 µM; in assay [5], 4.34 µM; in assay [6], 8.01 µM. The TGI in [7] is above 100 µM; in assay [8], 9.82 µM; in [9], 4.3 µM; in assay [10], 27.2 µM.

On to `COc1cc2c(/C=C3\C(=O)N(C)c4ccccc43)c[nH]c2cc1C`, for which the GI50 in assay [1] was 0.735 µM; in [2], 3.61 µM; in [3], 20.3 µM; in assay [4] it was 0.499 µM; in assay [5], 2.05 µM; in assay [6], 0.33 µM. The GI50 is 0.957 µM in assay [7], 23.5 µM in assay [8], 3.27 µM in assay [9] and 1.68 µM in assay [10]. In addition, the TGI in assay [1] was above 100 µM; in assay [2], 55.7 µM; in [3], above 58.1 µM; in assay [4], 29.6 µM; in assay [5] it was above 100 µM; in assay [6], above 100 µM. For the same molecule, the TGI in assay [7] is 18.8 µM; in [8], above 100 µM; in [9], 9.78 µM; in assay [10] it was above 100 µM.

For `ClCc1ccccc1Cn1cnc2nc(Cl)nc(Cl)c21`, the GI50 is 5.93 µM in assay [1]; 0.209 µM in assay [2]; 1.18 µM in assay [3]; 0.414 µM in [4]; 0.219 µM in assay [5]; 0.197 µM in assay [6]. Moreover, the GI50 in [7] was 0.104 µM; in assay [8], 1.6 µM; in assay [9], 5.29 µM; in [10] it was 0.266 µM. Further, the TGI in assay [1] turned out to be 24.2 µM; in [2] it was 0.609 µM; in assay [3] it was 9.52 µM; in assay [4] it was 1.47 µM; in assay [5] it was 0.642 µM; in [6] it was 0.434 µM. The TGI in assay [7] is 0.305 µM; in [8], 5.22 µM; in assay [9], 12.3 µM; in [10] it was 0.682 µM.

As to `CN1CCN(C)C1c1ccc(C2N(C)CCN2C)cc1`, the GI50 is 46.5 µM in assay [1]; 80 µM in assay [2]; above 100 µM in assay [3]; 39.7 µM in assay [4]; 18.3 µM in assay [5]; 77.7 µM in [6]. The GI50 in [7] is 29.8 µM; in assay [8] it was above 100 µM; in assay [9], 41.8 µM; in [10], 25 µM. For the same molecule, the TGI in assay [1] was above 100 µM; in [2] it was above 100 µM; in assay [3] it was above 100 µM; in assay [4], above 100 µM; in assay [5] it was 96.1 µM; in [6], above 100 µM. Moreover, the TGI in assay [7], in [8], in assay [9] and in [10] was above 100 µM in each case.
